# Source: PMC7578299, “The antiviral effects of baloxavir marboxil against influenza A virus infection in ferrets” (Influenza and Other Respiratory Viruses, 2020)
# How the values were obtained:
# [1] = Simulated plasma concentration of BXA (non-parametric superposition, Phoenix WinNonlin); set-up: species or system ferret; conditions: for terminal elimination half-life extrapolated from mean plasma concentrations between 6 and 24 hours: four ferrets; for Ratio of BXA concentration to EC90: EC90 0.42 ng/mL; for Ratio of BXA concentration to Target concentration: target 6.85 ng/mL
# Description: Plasma concentrations of BXA after dosing of BXM twice daily were estimated using the non‐parametric superposition function in Phoenix WinNonlin software (https://onlinehelp.certara.com/phoenix/8.2/topics/nonparasuper.htm) based on the mean plasma concentrations of BXA following single‐dose administration of BXM. Dosing type was used as “Variable.” The computation method used for interpolation and extrapolation of untransformed data was selected as logarithm (Log).
# [2] = tested on: influenza A/Kadoma/3/2006 strain; conditions: A/Kadoma/3/2006, yield reduction assay, cited from earlier work
# [3] = two doses BXM 10 mg/kg, 24 hours after first dosing
# [4] = two doses BXM 10 mg/kg, 48 hours after first dosing
# [5] = two doses BXM 30 mg/kg, 24 hours after first dosing
# [6] = two doses BXM 30 mg/kg, 48 hours after first dosing
smiles,measurement,setting,value
"O=C1c2c(O)c(=O)ccn2N([C@@H]2c3ccccc3SCc3c2ccc(F)c3F)[C@@H]2COCCN12 [BXA, baloxavir acid]",terminal elimination half-life extrapolated from mean plasma concentrations between 6 and 24 hours,[1]; BXM 10 mg/kg,6.57 h
same,terminal elimination half-life extrapolated from mean plasma concentrations between 6 and 24 hours,[1]; BXM 30 mg/kg,4.08 h
same,Simulated plasma concentration,"[1]; BXM single dose 10 mg/kg, 2.5 h",48.5 ng/mL
same,Simulated plasma concentration,"[1]; BXM single dose 10 mg/kg, 3 h",42.6 ng/mL
same,Simulated plasma concentration,"[1]; BXM single dose 10 mg/kg, 3.5 h",37.5 ng/mL
same,Simulated plasma concentration,"[1]; BXM single dose 10 mg/kg, 4 h",33.0 ng/mL
same,Simulated plasma concentration,"[1]; BXM single dose 10 mg/kg, 4.5 h",29.1 ng/mL
same,Simulated plasma concentration,"[1]; BXM single dose 10 mg/kg, 5 h",25.7 ng/mL
same,Simulated plasma concentration,"[1]; BXM single dose 10 mg/kg, 5.5 h",22.7 ng/mL
same,Simulated plasma concentration,"[1]; BXM single dose 10 mg/kg, 6 h",20.0 ng/mL
same,Simulated plasma concentration,"[1]; BXM single dose 10 mg/kg, 6.5 h",19.1 ng/mL
same,Simulated plasma concentration,"[1]; BXM single dose 10 mg/kg, 7 h",18.3 ng/mL
same,Simulated plasma concentration,"[1]; BXM single dose 10 mg/kg, 7.5 h",17.5 ng/mL
same,Simulated plasma concentration,"[1]; BXM single dose 10 mg/kg, 8 h",16.7 ng/mL
same,Simulated plasma concentration,"[1]; BXM single dose 10 mg/kg, 8.5 h",15.8 ng/mL
same,Simulated plasma concentration,"[1]; BXM single dose 10 mg/kg, 9 h",15.0 ng/mL
same,Simulated plasma concentration,"[1]; BXM single dose 10 mg/kg, 9.5 h",14.2 ng/mL
same,Simulated plasma concentration,"[1]; BXM single dose 10 mg/kg, 10 h",13.5 ng/mL
same,Simulated plasma concentration,"[1]; BXM single dose 10 mg/kg, 10.5 h",12.8 ng/mL
same,Simulated plasma concentration,"[1]; BXM single dose 10 mg/kg, 11 h",12.1 ng/mL
same,Simulated plasma concentration,"[1]; BXM single dose 10 mg/kg, 11.5 h",11.5 ng/mL
same,Simulated plasma concentration,"[1]; BXM single dose 10 mg/kg, 12 h",10.9 ng/mL
same,Simulated plasma concentration,"[1]; BXM single dose 10 mg/kg, 12.5 h",10.3 ng/mL
same,Simulated plasma concentration,"[1]; BXM single dose 10 mg/kg, 13 h",9.80 ng/mL
same,Simulated plasma concentration,"[1]; BXM single dose 10 mg/kg, 13.5 h",9.29 ng/mL
same,Simulated plasma concentration,"[1]; BXM single dose 10 mg/kg, 47.5 h",0.254 ng/mL
same,Simulated plasma concentration,"[1]; BXM single dose 10 mg/kg, 48 h",0.241 ng/mL
same,Simulated plasma concentration,"[1]; BXM single dose 30 mg/kg, 2.5 h",316 ng/mL
same,Simulated plasma concentration,"[1]; BXM single dose 30 mg/kg, 3 h",292 ng/mL
same,Simulated plasma concentration,"[1]; BXM single dose 30 mg/kg, 3.5 h",269 ng/mL
same,Simulated plasma concentration,"[1]; BXM single dose 30 mg/kg, 4 h",248 ng/mL
same,Simulated plasma concentration,"[1]; BXM single dose 30 mg/kg, 4.5 h",235.6 ng/mL
same,Simulated plasma concentration,"[1]; BXM single dose 30 mg/kg, 5 h",223.8 ng/mL
same,Simulated plasma concentration,"[1]; BXM single dose 30 mg/kg, 5.5 h",212.6 ng/mL
same,Simulated plasma concentration,"[1]; BXM single dose 30 mg/kg, 6 h",202 ng/mL
same,Simulated plasma concentration,"[1]; BXM single dose 30 mg/kg, 6.5 h",190.3 ng/mL
same,Simulated plasma concentration,"[1]; BXM single dose 30 mg/kg, 7 h",179.2 ng/mL
same,Simulated plasma concentration,"[1]; BXM single dose 30 mg/kg, 7.5 h",168.8 ng/mL
same,Simulated plasma concentration,"[1]; BXM single dose 30 mg/kg, 8 h",159 ng/mL
same,Simulated plasma concentration,"[1]; BXM single dose 30 mg/kg, 8.5 h",146 ng/mL
same,Simulated plasma concentration,"[1]; BXM single dose 30 mg/kg, 9 h",134 ng/mL
same,Simulated plasma concentration,"[1]; BXM single dose 30 mg/kg, 9.5 h",123 ng/mL
same,Simulated plasma concentration,"[1]; BXM single dose 30 mg/kg, 10 h",112 ng/mL
same,Simulated plasma concentration,"[1]; BXM single dose 30 mg/kg, 10.5 h",103 ng/mL
same,Simulated plasma concentration,"[1]; BXM single dose 30 mg/kg, 11 h",94.5 ng/mL
same,Simulated plasma concentration,"[1]; BXM single dose 30 mg/kg, 11.5 h",86.6 ng/mL
same,Simulated plasma concentration,"[1]; BXM single dose 30 mg/kg, 12 h",79.4 ng/mL
same,Simulated plasma concentration,"[1]; BXM single dose 30 mg/kg, 12.5 h",72.8 ng/mL
same,Simulated plasma concentration,"[1]; BXM single dose 30 mg/kg, 13 h",66.8 ng/mL
same,Simulated plasma concentration,"[1]; BXM single dose 30 mg/kg, 13.5 h",61.2 ng/mL
same,Simulated plasma concentration,"[1]; BXM single dose 30 mg/kg, 47.5 h",0.184 ng/mL
same,Simulated plasma concentration,"[1]; BXM single dose 30 mg/kg, 48 h",0.169 ng/mL
same,Simulated plasma concentration,"[1]; BXM two doses 10 mg/kg (0 and 12 h), 2.5 h",48.5 ng/mL
same,Simulated plasma concentration,"[1]; BXM two doses 10 mg/kg (0 and 12 h), 3 h",42.6 ng/mL
same,Simulated plasma concentration,"[1]; BXM two doses 10 mg/kg (0 and 12 h), 3.5 h",37.5 ng/mL
same,Simulated plasma concentration,"[1]; BXM two doses 10 mg/kg (0 and 12 h), 4 h",33.0 ng/mL
same,Simulated plasma concentration,"[1]; BXM two doses 10 mg/kg (0 and 12 h), 4.5 h",29.1 ng/mL
same,Simulated plasma concentration,"[1]; BXM two doses 10 mg/kg (0 and 12 h), 5 h",25.7 ng/mL
same,Simulated plasma concentration,"[1]; BXM two doses 10 mg/kg (0 and 12 h), 5.5 h",22.7 ng/mL
same,Simulated plasma concentration,"[1]; BXM two doses 10 mg/kg (0 and 12 h), 6 h",20.0 ng/mL
same,Simulated plasma concentration,"[1]; BXM two doses 10 mg/kg (0 and 12 h), 6.5 h",19.1 ng/mL
same,Simulated plasma concentration,"[1]; BXM two doses 10 mg/kg (0 and 12 h), 7 h",18.3 ng/mL
same,Simulated plasma concentration,"[1]; BXM two doses 10 mg/kg (0 and 12 h), 7.5 h",17.5 ng/mL
same,Simulated plasma concentration,"[1]; BXM two doses 10 mg/kg (0 and 12 h), 8 h",16.7 ng/mL
same,Simulated plasma concentration,"[1]; BXM two doses 10 mg/kg (0 and 12 h), 8.5 h",15.8 ng/mL
same,Simulated plasma concentration,"[1]; BXM two doses 10 mg/kg (0 and 12 h), 9 h",15.0 ng/mL
same,Simulated plasma concentration,"[1]; BXM two doses 10 mg/kg (0 and 12 h), 9.5 h",14.2 ng/mL
same,Simulated plasma concentration,"[1]; BXM two doses 10 mg/kg (0 and 12 h), 10 h",13.5 ng/mL
same,Simulated plasma concentration,"[1]; BXM two doses 10 mg/kg (0 and 12 h), 10.5 h",12.8 ng/mL
same,Simulated plasma concentration,"[1]; BXM two doses 10 mg/kg (0 and 12 h), 11 h",12.1 ng/mL
same,Simulated plasma concentration,"[1]; BXM two doses 10 mg/kg (0 and 12 h), 11.5 h",11.5 ng/mL
same,Simulated plasma concentration,"[1]; BXM two doses 10 mg/kg (0 and 12 h), 12 h (dosing)",10.9 ng/mL
same,Simulated plasma concentration,"[1]; BXM two doses 10 mg/kg (0 and 12 h), 12.5 h",43.5 ng/mL
same,Simulated plasma concentration,"[1]; BXM two doses 10 mg/kg (0 and 12 h), 13 h",65.9 ng/mL
same,Simulated plasma concentration,"[1]; BXM two doses 10 mg/kg (0 and 12 h), 13.5 h",64.9 ng/mL
same,Simulated plasma concentration,"[1]; BXM two doses 10 mg/kg (0 and 12 h), 24 h",13.9 ng/mL
same,Simulated plasma concentration,"[1]; BXM two doses 10 mg/kg (0 and 12 h), 47.5 h",1.16 ng/mL
same,Simulated plasma concentration,"[1]; BXM two doses 10 mg/kg (0 and 12 h), 48 h",1.10 ng/mL
same,Simulated plasma concentration,"[1]; BXM two doses 30 mg/kg (0 and 12 h), 2.5 h",316 ng/mL
same,Simulated plasma concentration,"[1]; BXM two doses 30 mg/kg (0 and 12 h), 3 h",292 ng/mL
same,Simulated plasma concentration,"[1]; BXM two doses 30 mg/kg (0 and 12 h), 3.5 h",269 ng/mL
same,Simulated plasma concentration,"[1]; BXM two doses 30 mg/kg (0 and 12 h), 4 h",248 ng/mL
same,Simulated plasma concentration,"[1]; BXM two doses 30 mg/kg (0 and 12 h), 4.5 h",236 ng/mL
same,Simulated plasma concentration,"[1]; BXM two doses 30 mg/kg (0 and 12 h), 5 h",224 ng/mL
same,Simulated plasma concentration,"[1]; BXM two doses 30 mg/kg (0 and 12 h), 5.5 h",213 ng/mL
same,Simulated plasma concentration,"[1]; BXM two doses 30 mg/kg (0 and 12 h), 6 h",202 ng/mL
same,Simulated plasma concentration,"[1]; BXM two doses 30 mg/kg (0 and 12 h), 6.5 h",190 ng/mL
same,Simulated plasma concentration,"[1]; BXM two doses 30 mg/kg (0 and 12 h), 7 h",179 ng/mL
same,Simulated plasma concentration,"[1]; BXM two doses 30 mg/kg (0 and 12 h), 7.5 h",169 ng/mL
same,Simulated plasma concentration,"[1]; BXM two doses 30 mg/kg (0 and 12 h), 8 h",159 ng/mL
same,Simulated plasma concentration,"[1]; BXM two doses 30 mg/kg (0 and 12 h), 8.5 h",146 ng/mL
same,Simulated plasma concentration,"[1]; BXM two doses 30 mg/kg (0 and 12 h), 9 h",134 ng/mL
same,Simulated plasma concentration,"[1]; BXM two doses 30 mg/kg (0 and 12 h), 9.5 h",123 ng/mL
same,Simulated plasma concentration,"[1]; BXM two doses 30 mg/kg (0 and 12 h), 10 h",112 ng/mL
same,Simulated plasma concentration,"[1]; BXM two doses 30 mg/kg (0 and 12 h), 10.5 h",103 ng/mL
same,Simulated plasma concentration,"[1]; BXM two doses 30 mg/kg (0 and 12 h), 11 h",94.5 ng/mL
same,Simulated plasma concentration,"[1]; BXM two doses 30 mg/kg (0 and 12 h), 11.5 h",86.6 ng/mL
same,Simulated plasma concentration,"[1]; BXM two doses 30 mg/kg (0 and 12 h), 12 h (dosing)",79.4 ng/mL
same,Simulated plasma concentration,"[1]; BXM two doses 30 mg/kg (0 and 12 h), 12.5 h",208 ng/mL
same,Simulated plasma concentration,"[1]; BXM two doses 30 mg/kg (0 and 12 h), 13 h",405 ng/mL
same,Simulated plasma concentration,"[1]; BXM two doses 30 mg/kg (0 and 12 h), 47.5 h",1.60 ng/mL
same,Simulated plasma concentration,"[1]; BXM two doses 30 mg/kg (0 and 12 h), 48 h",1.47 ng/mL
same,Ratio of BXA concentration to EC90,[1]; [3],× 33.2
same,Ratio of BXA concentration to Target concentration,[1]; [3],× 2.0
same,Ratio of BXA concentration to EC90,[1]; [4],× 2.6
same,Ratio of BXA concentration to Target concentration,[1]; [4],× 0.16
same,Ratio of BXA concentration to EC90,[1]; [5],× 213
same,Ratio of BXA concentration to Target concentration,[1]; [5],× 13.0
same,Ratio of BXA concentration to EC90,[1]; [6],× 3.5
same,Ratio of BXA concentration to Target concentration,[1]; [6],× 0.21
same,90% effective concentration (EC90),[2],0.42 ng/mL
same,EC90,[2]; read-out: 90% effective concentration (EC90),0.88 nM
